Source: patent publication US9624170B2, “4-(piperrazin-1-yl)-pyrrolidin-2-one compounds as monoacylglycerol lipase (MAGL) inhibitors” (TAKEDA PHARMACEUTICAL COMPANY LIMITED, priority 2013, dated 2017)

Molecular target: T1, human MAGL (His-hMAGL) (Homo sapiens, UniProt Q99685)
T1 construct: made in house; host or cells: Escherichia coli BL21(DE3)
T1 sequence (Q99685 1-303): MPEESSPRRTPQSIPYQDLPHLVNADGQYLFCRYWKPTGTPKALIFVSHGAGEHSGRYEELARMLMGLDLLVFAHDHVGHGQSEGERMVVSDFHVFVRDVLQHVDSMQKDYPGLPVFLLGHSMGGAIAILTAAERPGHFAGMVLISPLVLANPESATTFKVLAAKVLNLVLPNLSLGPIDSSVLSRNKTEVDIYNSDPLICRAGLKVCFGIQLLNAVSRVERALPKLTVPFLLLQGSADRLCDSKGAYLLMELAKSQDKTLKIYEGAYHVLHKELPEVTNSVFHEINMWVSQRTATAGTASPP
Assay: Measurement of MAGL inhibitory activity by mass spectrometry
Type: biochemical
Conditions: 10 μM test compound; substrate 2-arachidonylglycerol, arachidonic acid by RapidFire-mass spectrometry
Protocol: Thereafter, to each well was added 150 μM 2-arachidonylglycerol (Tocris Bioscience) by 5 μL, and the mixture was incubated at room temperature for 10 min. Then, 2% formic acid (Wako Pure Chemical Industries, Ltd.) was added by 10 μL to discontinue the reaction. Furthermore, acetonitrile (50 μL) containing 3 μM arachidonic acid-d8 (Cayman Chemical Company) was added and the mixture was stirred. The amount of arachidonic acid in the obtained enzyme reaction mixture was calculated by measuring by RapidFire-mass spectrometry and correcting by the amount of arachidonic acid-d8. High Throughput online solid phase extraction was performed using RapidFire 300TM system (Agilent Technologies, Inc.). […] The injection needle was washed with ultrapure water (500 millisecond) and acetonitrile (500 millisecond) to minimize carry-over. […] The RapidFire300 system was controlled by RapidFire UI software version 3.6 (Agilent Technologies, Inc.). The mass spectrometry of the resultant product was performed using […] triple quadrupole mass spectrometer (AB SCIEX) equipped with an electrospray ion sauce (Turbolon SprayTM) in a negative selected reaction monitoring (SRM) mode. The conditions of SRM are shown below. The parameters of the instrument were optimized as follows: capillary temperature 600° C., ion spray voltage -4.5 kV, collision gas 8, curtain gas 15 psi, ion source gas 1 60 psi, ion source gas 2 60 psi. The mass spectrometer was controlled by AnalystTM software version 1.5.1 (AB SCIEX). The peak area integration was analyzed using RapidFire integrator software version 3.6 (Agilent Technologies, Inc.). MAGL inhibitory rate (%) was calculated according to the following calculation formula.

Row | inhibition at 10 µM [%] | Compound
1 | 91 | O=C(c1nccs1)N1CCN(C2CC(=O)N(c3ccccc3)C2)CC1 (stereo not shown) [Example 160, 1-phenyl-4-(4-(1,3-thiazol-2-ylcarbonyl)piperazin-1-yl)pyrrolidin-2-one]
2 | 97 | O=C1CCc2ccc(Nc3cccc(N4CC(N5CCN(C(=O)c6nccs6)CC5)CC4=O)c3)cc2N1 (stereo not shown) [Example 123, 7-((3-(2-oxo-4-(4-(1,3-thiazol-2-ylcarbonyl)piperazin-1-yl)pyrrolidin-1-yl)phenyl)amino)-3,4-dihydroquinolin-2(1H)-one]
3 | 102 | O=C(c1nccs1)N1CCN(C2CC(=O)N(c3cccc(-c4ccccc4F)c3)C2)CC1 (stereo not shown) [Example 136, 1-(2′-fluorobiphenyl-3-yl)-4-(4-(1,3-thiazol-2-ylcarbonyl)piperazin-1-yl)pyrrolidin-2-one]
4 | 99 | CN1CC(Nc2cccc(N3CC(N4CCN(C(=O)c5nccs5)CC4)CC3=O)c2)CCC1=O (stereo not shown) [Example 127, 1-methyl-5-((3-(2-oxo-4-(4-(1,3-thiazol-2-ylcarbonyl)piperazin-1-yl)pyrrolidin-1-yl)phenyl)amino)piperidin-2-one]
5 | 99 | Cc1cc(-c2cccc(N3CC(N4CCN(C(=O)c5nccs5)CC4)CC3=O)c2)n(C)n1 (stereo not shown) [Example 157, 1-(3-(1,3-dimethyl-1H-pyrazol-5-yl)phenyl)-4-(4-(1,3-thiazol-2-ylcarbonyl)piperazin-1-yl)pyrrolidin-2-one]

Same assay, conditions: MAGL inhibitory rate, test compound 10 μM, His-hMAGL, substrate 2-arachidonylglycerol, RapidFire-mass spectrometry

Row | inhibition at 10 µM [%] | Compound
6 | 83 | Cn1ccnc1-c1cccc(N2CC(N3CCN(C(=O)c4nccs4)CC3)CC2=O)c1 (stereo not shown) [Example 333, 1-(3-(1-methyl-1H-imidazol-2-yl)phenyl)-4-(4-(1,3-thiazol-2-ylcarbonyl)piperazin-1-yl)pyrrolidin-2-one]
7 | 94 | CC(C)(C)CC(=O)N1CCc2cc(N3CC(N4CCN(c5ncccn5)CC4)CC3=O)ccc21 (stereo not shown) [Example 409, 1-(1-(3,3-dimethylbutanoyl)-2,3-dihydro-1H-indol-5-yl)-4-(4-(pyrimidin-2-yl)piperazin-1-yl)pyrrolidin-2-one]
8 | 97 | O=C(c1nccs1)N1CCN(C2CC(=O)N(c3cccc(-c4ccc(C(F)(F)F)cc4)c3)C2)CC1 (stereo not shown) [Example 288, 4-(4-(1,3-thiazol-2-ylcarbonyl)piperazin-1-yl)-1-(4′-(trifluoromethyl)biphenyl-3-yl)pyrrolidin-2-one]
9 | 99 | O=C(c1nccs1)N1CCN(C2CC(=O)N(c3ccc4c(ccn4-c4nccc(C(F)(F)F)n4)c3)C2)CC1 (stereo not shown) [Example 281, 4-(4-(1,3-thiazol-2-ylcarbonyl)piperazin-1-yl)-1-(1-(4-(trifluoromethyl)pyrimidin-2-yl)-1H-indol-5-yl)pyrrolidin-2-one]
10 | 100 | O=C(c1nccs1)N1CCN(C2CC(=O)N(c3ccc4c(c3)CCN4C(=O)CC3CC3)C2)CC1 (stereo not shown) [Example 398, 1-(1-(cyclopropylacetyl)-2,3-dihydro-1H-indol-5-yl)-4-(4-(1,3-thiazol-2-ylcarbonyl)piperazin-1-yl)pyrrolidin-2-one]
11 | 97 | N#Cc1ccc(-c2cccc(N3CC(N4CCN(C(=O)c5nccs5)CC4)CC3=O)c2)c(F)c1 (stereo not shown) [Example 316, 2-fluoro-3′-(2-oxo-4-(4-(1,3-thiazol-2-ylcarbonyl)piperazin-1-yl)pyrrolidin-1-yl)biphenyl-4-carbonitrile]
12 | 101 | O=C1CC(N2CCN(c3ncccn3)CC2)CN1c1cccc(-c2ccccc2Cl)c1 (stereo not shown) [Example 269, 1-(2′-chlorobiphenyl-3-yl)-4-(4-(pyrimidin-2-yl)piperazin-1-yl)pyrrolidin-2-one]
13 | 98 | O=C(c1nccs1)N1CCN([C@@H]2CC(=O)N(c3ccc4c(ccn4-c4cnc(C(F)(F)F)cn4)c3)C2)CC1 [Example 245, (4R)-4-(4-(1,3-thiazol-2-ylcarbonyl)piperazin-1-yl)-1-(1-(5-(trifluoromethyl)pyrazin-2-yl)-1H-indol-5-yl)pyrrolidin-2-one]
